We go through two molecules from PMC12175894 (Science Advances, 2025).

Series [1] has as its target neurotensin NTS2 (Homo sapiens, UniProt O95665). As to the kind of experiment: Radioligand displacement, [3H]NT(8-13). For orientation: In a radioligand displacement assay an active substance lowers the binding of a labelled ligand.
Series [2] deals with male C56BL/6 mice. The series is described as follows: Accelerating rotarod. It is filed as in vivo, mouse. For orientation: The rotarod test checks motor coordination on a turning rod.
Series [3] has as its target T1, 5-HT1AR F112^3.28W (Homo sapiens, UniProt P08908, F112W).
T1 sequence (P08908 1-422 F112W): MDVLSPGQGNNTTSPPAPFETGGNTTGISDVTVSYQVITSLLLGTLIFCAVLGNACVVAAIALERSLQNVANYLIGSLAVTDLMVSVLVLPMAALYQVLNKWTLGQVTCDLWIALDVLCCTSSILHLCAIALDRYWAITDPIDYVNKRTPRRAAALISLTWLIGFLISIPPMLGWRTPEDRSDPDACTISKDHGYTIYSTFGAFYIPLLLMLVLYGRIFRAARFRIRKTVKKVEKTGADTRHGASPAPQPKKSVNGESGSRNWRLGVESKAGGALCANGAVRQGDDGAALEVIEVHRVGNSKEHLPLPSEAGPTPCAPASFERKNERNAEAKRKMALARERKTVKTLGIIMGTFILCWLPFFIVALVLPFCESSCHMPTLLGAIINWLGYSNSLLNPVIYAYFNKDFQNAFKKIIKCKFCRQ
The series is described as follows: GloSensor inhibition of cAMP accumulation in HEK293AΔGs. It is filed as cell-based. The following applies: for Emax: read-out: Emax [% ± SEM], inhibition of cAMP accumulation. (cAMP levels reflect the balance of adenylyl cyclase and phosphodiesterase activity.)

Series [4] deals with muscarinic M1 (Homo sapiens, UniProt P11229). As to the kind of experiment: Radioligand displacement, [3H]NMS.
Chain of muscarinic M1 (P11229 whole entry): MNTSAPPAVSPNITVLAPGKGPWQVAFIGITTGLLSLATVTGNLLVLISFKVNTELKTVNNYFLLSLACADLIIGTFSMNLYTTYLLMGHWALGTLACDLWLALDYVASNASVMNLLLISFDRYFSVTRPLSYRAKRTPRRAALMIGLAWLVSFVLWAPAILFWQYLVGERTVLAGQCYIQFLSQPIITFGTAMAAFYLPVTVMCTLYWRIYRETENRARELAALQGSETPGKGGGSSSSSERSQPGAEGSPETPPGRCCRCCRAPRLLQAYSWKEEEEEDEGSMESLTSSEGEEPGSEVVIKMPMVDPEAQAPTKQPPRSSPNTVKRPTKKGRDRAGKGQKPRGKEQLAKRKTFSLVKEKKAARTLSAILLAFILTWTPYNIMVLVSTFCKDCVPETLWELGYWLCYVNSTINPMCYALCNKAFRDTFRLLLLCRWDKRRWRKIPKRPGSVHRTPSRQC
The target of series [5] is T2, 5-HT1AR (Homo sapiens, UniProt P08908).
T2 sequence (P08908 1-422): T1 sequence (P08908 1-422 F112W) with W112F
The series is described as follows: GloSensor cAMP assay in HEK293A cells deficient of β-arrestins. The format is cell-based. Also noted: host or cells: HEK293T, HEK293A, HEK293AΔGs, HEK293AΔGi/o, HEK293AΔARRB1/B2.

For series [6], the system named is male C56BL/6 mice. The series is described as follows: 52°C hot plate. It is filed as in vivo, mouse. Particulars: wild-type mice, 10 mg/kg.
Series [7] concerns the target T2, 5-HT1AR. The series is described as follows: Complementation-based β-arrestin 2 recruitment PathHunter assay. The following applies: for Emax: relative to serotonin.
Series [8] concerns the target T2, 5-HT1AR. As to the kind of experiment: PathHunter β-arrestin 2 inhibition assay, stimulated with serotonin.
For series [9], the target named is T1, 5-HT1AR F112^3.28W. As to the kind of experiment: GloSensor cAMP accumulation in HEK293AΔGi/o. The format is cell-based. The following applies: read-out: Emax [% ± SEM], cAMP accumulation.
Series [10] concerns the target T3, 5-HT1AR + Gαz (Homo sapiens, UniProt P08908).
T3 construct: host or cells: HEK293AΔGi/o
As to the kind of experiment: GloSensor cAMP in HEK293AΔGi/o co-transfected with Gαz. The format is cell-based.

Series [11] addresses T2, 5-HT1AR. The series is described as follows: GloSensor cAMP assay in HEK293T cells. It is filed as cell-based. Set-up: host or cells: HEK293T, HEK293A, HEK293AΔGs, HEK293AΔGi/o, HEK293AΔARRB1/B2.
The test system of series [12] is male C56BL/6 mice. As to the kind of experiment: Hargreaves test. It is filed as in vivo, mouse. The following applies: for response latency, Hargreaves: 10 mg/kg i.p.
For series [13], the target named is 5-HT1BR (Homo sapiens, UniProt P28222). The series is described as follows: BRET Gαi1 activation.
Chain of 5-HT1BR (P28222 whole entry): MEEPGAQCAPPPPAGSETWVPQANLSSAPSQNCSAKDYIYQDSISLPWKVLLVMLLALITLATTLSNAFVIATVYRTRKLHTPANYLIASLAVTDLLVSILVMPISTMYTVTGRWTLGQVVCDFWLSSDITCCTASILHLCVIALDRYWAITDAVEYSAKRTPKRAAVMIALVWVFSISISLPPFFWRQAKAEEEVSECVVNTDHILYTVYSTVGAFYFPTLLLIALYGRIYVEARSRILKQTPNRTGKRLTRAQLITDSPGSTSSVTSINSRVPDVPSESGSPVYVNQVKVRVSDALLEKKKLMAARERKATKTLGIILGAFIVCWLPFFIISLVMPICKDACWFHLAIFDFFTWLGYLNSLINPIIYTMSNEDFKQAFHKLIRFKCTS
Series [14] deals with mice. As to the kind of experiment: Elevated plus maze. The format is in vivo, mouse.
Series [15] addresses T4, 5-HT1AR Y96^2.64A (Homo sapiens, UniProt P08908, Y96A).
T4 sequence (P08908 1-422 Y96A): T1 sequence (P08908 1-422 F112W) with Y96A, W112F
As to the kind of experiment: Radioligand competition, displacement of [3H]WAY100635. Particulars: for decrease of affinity when Y96^2.64 and Q97^2.65 were replaced by alanine: Y96A and Q97A mutants vs WT. The format is binding.

For series [16], the system named is male C56BL/6 mice. As to the kind of experiment: 50°C tail flick. The format is in vivo, mouse. The following applies: 10 mg/kg i.p.
The mark [17] stands for this setting: read-out: Emax, β-arrestin 2 recruitment, PathHunter, elevated GRK2.
Where [18] appears, read: read-out: Emax, β-arrestin 2 recruitment, PathHunter, native GRK2.

One may read the Ki as the dissociation constant of the complex between target and ligand, obtained from inhibition or displacement. As a reminder, the EC50 is the midpoint of the concentration-response curve. One may read the Emax as the greatest response seen or fitted, relative to the assay's reference. The term IC50 denotes the point on the concentration scale where inhibition reaches its midpoint. Read a low IC50 as inhibition by little substance.

Changes are numbered by the printed parent chain.

Chain of neurotensin NTS2 (O95665 whole entry): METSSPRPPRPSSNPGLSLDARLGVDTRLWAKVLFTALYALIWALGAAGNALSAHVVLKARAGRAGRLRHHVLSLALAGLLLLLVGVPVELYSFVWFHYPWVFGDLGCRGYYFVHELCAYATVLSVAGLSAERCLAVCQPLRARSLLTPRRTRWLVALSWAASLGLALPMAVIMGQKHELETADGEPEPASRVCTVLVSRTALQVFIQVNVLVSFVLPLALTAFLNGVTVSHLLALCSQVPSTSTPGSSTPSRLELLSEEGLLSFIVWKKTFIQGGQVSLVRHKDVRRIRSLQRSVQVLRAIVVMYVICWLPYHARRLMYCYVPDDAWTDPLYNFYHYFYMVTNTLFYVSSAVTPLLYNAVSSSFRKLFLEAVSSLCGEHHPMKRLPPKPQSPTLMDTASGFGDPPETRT
T3 sequence (P08908 whole entry): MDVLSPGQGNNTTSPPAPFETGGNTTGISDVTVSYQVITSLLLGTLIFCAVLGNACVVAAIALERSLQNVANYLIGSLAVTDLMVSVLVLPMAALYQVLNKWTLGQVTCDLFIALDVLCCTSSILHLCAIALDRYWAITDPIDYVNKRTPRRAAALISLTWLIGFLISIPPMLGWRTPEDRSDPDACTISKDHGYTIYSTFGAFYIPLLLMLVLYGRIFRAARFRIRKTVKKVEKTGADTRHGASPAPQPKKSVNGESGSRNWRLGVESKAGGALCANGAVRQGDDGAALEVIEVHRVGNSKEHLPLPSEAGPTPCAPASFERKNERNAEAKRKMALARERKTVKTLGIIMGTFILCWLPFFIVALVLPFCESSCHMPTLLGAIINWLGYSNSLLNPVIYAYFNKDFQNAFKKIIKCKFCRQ
T3 sequence (P19086 2-355 partner limits assumed): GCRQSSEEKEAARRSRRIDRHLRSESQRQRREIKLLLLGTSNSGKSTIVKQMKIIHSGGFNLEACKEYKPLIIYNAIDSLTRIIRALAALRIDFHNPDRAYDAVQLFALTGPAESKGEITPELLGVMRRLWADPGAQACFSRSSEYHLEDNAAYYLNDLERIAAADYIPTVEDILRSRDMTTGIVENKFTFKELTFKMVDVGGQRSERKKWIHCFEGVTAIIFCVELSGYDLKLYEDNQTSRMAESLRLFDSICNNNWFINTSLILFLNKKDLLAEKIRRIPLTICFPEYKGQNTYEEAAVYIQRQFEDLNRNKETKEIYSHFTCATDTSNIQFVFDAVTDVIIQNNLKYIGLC

Consider `COc1ccccc1OCCNCCCOc1ccc2c(c1)NC(=O)CO2` [ST171], for which the inhibitory constant (Ki) in series [1] (Ki [nM ± SD]) is > 50000 nM; in [1] (pKi) it was > 50100 nM; in series [4] (Ki [nM ± SD]), 10000 ± 920 nM; in series [4] (pKi), 10300 nM; in series [15] (5-HT1AR Y96A, HEK 293T membranes, read-out: Ki [nM ± SEM]), 63 nM. The “sedative effects, accelerating rotarod” value is “did not differ from control mice injected with vehicle” in series [2] (10 mg/kg) and “presumptive sedative effect” in [2] (15 mg/kg). Moreover, the EC50 came out at 2.2 ± 0.3 nM in series [3] (HEK293AΔGs, F112W, read-out: EC50 [nM ± SEM], inhibition of cAMP accumulation); 3.5 ± 1 nM in [5] (HEK Δβ-arrestin, GloSensor; read-out: EC50 left [nM±SEM], inhibition of cAMP accumulation); 5.5 ± 1.4 nM in [7]; 0.9 ± 0.2 nM in series [11] (HEK293T, GloSensor; read-out: EC50 left [nM±SEM], inhibition of cAMP accumulation); 3.7 nM in series [13]. In addition, the Emax is 69 ± 8% in series [3]; 60% in [5] (HEK293-A, read-out: Emax [%±SEM], inhibition of cAMP accumulation); 15% in series [7] (setting [17]); < 5% in [7] (setting [18]); < 5% in [9]; 93% in [10]. In addition, the Emax in [11] (HEK-293T, read-out: Emax [%±SEM], inhibition of cAMP accumulation) stood at 100 ± 3%; in series [13], 94%. The “response latency, 52°C hot plate” value in series [6] is “antinociceptive”. In series [8], this molecule had an IC50 of 3.9 ± 0.5 nM. The “response latency, Hargreaves” value in series [12] is “antinociceptive”. The “antinociception, Hargreaves, lower doses” value in series [12] (1 and 5 mg/kg) is “not as antinociceptive as the 10 mg/kg dose”. Besides, the “time in center and open arms, plus maze” value in series [14] (1 or 5 mg/kg, 30 min before test) is recorded as “spent more time in the center”. Besides, the “anxiolytic effect, plus maze” value in series [14] (analgesic dose (10 mg/kg)) is recorded as “anxiolytic effects of the drug disappeared”. In addition, the “decrease of affinity when Y96^2.64 and Q97^2.65 were replaced by alanine” value in series [15] was “more than 150 fold”. Besides, the “response latency, 50°C tail flick” value in series [16] is listed as “antinociceptive”.

As for `Cc1ccc(CNCC2(F)CCN(C(=O)c3ccc(F)c(Cl)c3)CC2)nc1` [befiradol, reference compound], in series [2] (all doses >1 mg/kg), the “sedative effects, accelerating rotarod” value is recorded as “significantly reduced the ability of the mouse to continue on the rotarod”. Besides, the Emax in [3] turned out to be 95 ± 5%; in [5] (HEK293-A; read-out: Emax [%±SEM], inhibition of cAMP accumulation), 89 ± 4%; in series [7] (setting [17]) it was 96 ± 3%; in [7] (setting [18]) it was 67%; in [10], 95 ± 2%; in [11] (HEK-293T; read-out: Emax [%±SEM], inhibition of cAMP accumulation) it was 111 ± 6%. The “Esat [%±SEM]” value in series [5] (HEK Δβ-arrestin, GloSensor) is 73 ± 5%; in series [11] (HEK293T, GloSensor), 71 ± 6%. Besides, the “response latency, 52°C hot plate” value in [6] is “antinociceptive”. Further, the “increase in efficacy with elevated vs native GRK2” value in series [7] (PathHunter β-arrestin 2) is given as “approximately 30%”. The “increase of potency with elevated vs native GRK2” value in [7] (PathHunter β-arrestin 2) came to 4 fold. For the same molecule, the “response latency, Hargreaves” value in [12] is on record as “antinociceptive”. For the same molecule, the “decrease of affinity when Y96^2.64 and Q97^2.65 were replaced by alanine” value in series [15] is 4.2- to 13.3 fold. Further, the “response latency, 50°C tail flick” value in series [16] is reported as “antinociceptive”.
